The source of these data is US20110183954A1, “TRICYCLIC 2,4-DIAMINO-L,3,5-TRIAZINE DERIVATIVES USEFUL FOR THE TREATMENT OF CANCER AND MYELOPROLIFERATIVE DISORDERS” (ASTRAZENECA AB, priority 2008, published 2011).

SMILES strings stand for the structures.

This assay deals with human JAK2 (Homo sapiens, UniProt O60674). The experiment in a line: Method 1 (JAK2): Amplified Luminescent Proximity Assay (Alphascreen). The assay is classed as biochemical. Details: His6 (C); purchased Upstate Biotechnology; host or cells: baculovirus in Sf21 cells. Particulars: 150 pM JAK2 enzyme, 5 mM ATP, 60 minutes, room temperature, read-out: IC50 (JAK inhibitory activity, Method 1 (JAK2)). From the text: JAK2 kinase activity may be determined by measuring the kinase's ability to phosphorylate synthetic tyrosine residues within a generic polypeptide substrate using an Amplified Luminescent Proximity Assay (Alphascreen) technology (PerkinElmer, 549 Albany Street, Boston, Mass.).
Sequence of human JAK2 (O60674 808-1132 limits assumed): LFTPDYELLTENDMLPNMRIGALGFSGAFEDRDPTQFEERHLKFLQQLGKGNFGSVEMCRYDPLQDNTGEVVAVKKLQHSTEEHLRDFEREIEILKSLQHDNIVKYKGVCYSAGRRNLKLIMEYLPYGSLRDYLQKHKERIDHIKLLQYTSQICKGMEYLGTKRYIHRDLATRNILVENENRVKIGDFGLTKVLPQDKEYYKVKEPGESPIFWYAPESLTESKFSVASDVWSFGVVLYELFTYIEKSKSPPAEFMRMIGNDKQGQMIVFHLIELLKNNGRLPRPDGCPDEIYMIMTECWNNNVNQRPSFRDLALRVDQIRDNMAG
To measure JAK2 kinase activity, a commercially available purified enzyme may be used. The enzyme may be a C-terminal His6-tagged, recombinant, human JAK2, amino acids 808-end, (Genbank Accession number NM 004972) expressed by baculovirus in Sf21 cells (Upstate Biotechnology MA). After incubation of the kinase with a biotinylated substrate and adenosine triphosphate (ATP) for 60 minutes at room temperature, the kinase reaction may be stopped by the addition of 30 mM ethylenediaminetetraacetic acid (EDTA). The reaction may be performed in 384 well microtitre plates and the reaction products may be detected with the addition of streptavidin coated Donor Beads and phosphotyrosine-specific antibodies coated Acceptor Beads using the EnVision Multilabel Plate Reader after an overnight incubation at room temperature.
(In general: Bead proximity is the source of the signal in Alpha formats.)
As for `C[C@H](Nc1nc(Nc2ncc(C#N)s2)nc(N2CCOCC2)n1)c1ncc(F)cn1` [Example 7, 2-[(4-{[(1S)-1-(5-Fluoropyrimidin-2-yl)ethyl]amino}-6-morpholin-4-yl-1,3,5-triazin-2-yl)amino]-1,3-thiazole-5-carbonitrile], the 50% inhibitory concentration (IC50) turned out to be 3170 nM.

In the case of `CCn1cnc(Nc2nc(N[C@@H](C)c3ncc(F)cn3)nc(N3CCOCC3)n2)c1` [Example 35, N-(1-Ethyl-1H-imidazol-4-yl)-N′-[(1S)-1-(5-fluoropyrimidin-2-yl)ethyl]-6-morpholin-4-yl-1,3,5-triazine-2,4-diamine], the concentration for half-maximal inhibition (IC50) came to 23 nM.

Regarding `C[C@H](Nc1nc(Nc2cn(CCc3ccccc3)cn2)nc(N2CCOCC2)n1)c1ncc(F)cn1` [Example 6, N-[(1S)-1-(5-Fluoropyrimidin-2-yl)ethyl]-6-morpholin-4-yl-N′-[1-(2-phenylethyl)-1H-imidazol-4-yl]-1,3,5-triazine-2,4-diamine], the IC50 is 283 nM.

Consider `CC(Nc1nc(Nc2cn(C)cn2)nc(N2CCOCC2)n1)c1ncc(F)cc1F` (racemic) [Example 10, N-[1-(3,5-Difluoropyridin-2-yl)ethyl]-N′-(1-methyl-1H-imidazol-4-yl)-6-morpholin-4-yl-1,3,5-triazine-2,4-diamine], for which the IC50 was found to be 4 nM.

For the molecule `C[C@H](Nc1nc(Nc2cn(C)cn2)nc(N2CCC(F)(F)CC2)n1)c1ncc(F)cn1` [Example 14, 6-(4,4-Difluoropiperidin-1-yl)-N-[(1S)-1-(5-fluoropyrimidin-2-yl)ethyl]-N′-(1-methyl-1H-imidazol-4-yl)-1,3,5-triazine-2,4-diamine], the IC50 came to 7 nM.

As for `C[C@H](Nc1nc(Nc2cn(CC(F)(F)F)cn2)nc(N2CCOCC2)n1)c1ncc(F)cn1` [Example 34, N-[(1S)-1-(5-fluoropyrimidin-2-yl)ethyl]-6-morpholin-4-yl-N′-[1-(2,2,2-trifluoroethyl)-1H-imidazol-4-yl]-1,3,5-triazine-2,4-diamine], the IC50 turned out to be 8320 nM.

With `C[C@H](Nc1nc(Nc2cn(C3CC3)cn2)nc(N2CCOCC2)n1)c1ncc(F)cn1` [Example 32, N-(1-Cyclopropyl-1H-imidazol-4-yl)-N′-[(1S)-1-(5-fluoropyrimidin-2-yl)ethyl]-6-morpholin-4-yl-1,3,5-triazine-2,4-diamine], the half-maximal inhibitory concentration (IC50) is 393 nM.

On to `C[C@H](Nc1nc(Nc2cn(C)cn2)nc(N2CCOCC2)n1)c1ncc(F)cc1F` (single isomer, unassigned) [Example 10(b)], for which the IC50 was less than 8 nM.

With `C[C@H](Nc1nc(Nc2cn(C)cn2)nc(N2CC(F)C2)n1)c1ncc(F)cc1F` [Example 18, N-[(1S)-1-(3,5-Difluoropyridin-2-yl)ethyl]-6-(3-fluoroazetidin-1-yl)-N′-(1-methyl-1H-imidazol-4-yl)-1,3,5-triazine-2,4-diamine], the IC50 was 13 nM.

As for `Cc1cnc(Nc2nc(N[C@@H](C)c3ncc(F)cn3)nc(N3CCOCC3)n2)s1` [Example 8, N-[(1S)-1-(5-Fluoropyrimidin-2-yl)ethyl]-N′-(5-methyl-1,3-thiazol-2-yl)-6-morpholin-4-yl-1,3,5-triazine-2,4-diamine], the IC50 stood at 4 nM.

Turning to `C[C@H](Nc1nc(Nc2cn(C)cn2)nc(N2CCC(F)CC2)n1)c1ncc(F)cc1F` [Example 21, N-[(1S)-1-(3,5-Difluoropyridin-2-yl)ethyl]-6-(4-fluoropiperidin-1-yl)-N′-(1-methyl-1H-imidazol-4-yl)-1,3,5-triazine-2,4-diamine], the IC50 turned out to be 4 nM.

On to `COC1CN(c2nc(Nc3cn(C)cn3)nc(N[C@@H](C)c3ncc(F)cn3)n2)C1` [Example 20, N-[(1S)-1-(5-Fluoropyrimidin-2-yl)ethyl]-6-(3-methoxyazetidin-1-yl)-N′-(1-methyl-1H-imidazol-4-yl)-1,3,5-triazine-2,4-diamine], for which the concentration for half-maximal inhibition (IC50) was determined as 7 nM.

As to `COCn1cnc(Nc2nc(N[C@@H](C)c3ncc(F)cn3)nc(N3CCOCC3)n2)c1` [Example 16, N-[(1S)-1-(5-Fluoropyrimidin-2-yl)ethyl]-N′-[1-(methoxymethyl)-1H-imidazol-4-yl]-6-morpholin-4-yl-1,3,5-triazine-2,4-diamine], the IC50 was 2870 nM.

Take `C[C@H](Nc1nc(Nc2cscn2)nc(N2CCOCC2)n1)c1ncc(F)cn1` [Example 26, N-[(1S)-1-(5-Fluoropyrimidin-2-yl)ethyl]-6-morpholin-4-yl-N′-1,3-thiazol-4-yl-1,3,5-triazine-2,4-diamine]: the concentration for half-maximal inhibition (IC50) turned out to be 219 nM.

As for `C[C@H](Nc1nc(Nc2cn(C)cn2)nc(N2CCOC[C@H]2CO)n1)c1ncc(F)cc1F` [Example 22, [(3R)-4-(4-{[(1S)-1-(3,5-difluoropyridin-2-yl)ethyl]amino}-6-[(1-methyl-1H-imidazol-4-yl)amino]-1,3,5-triazin-2-yl)morpholin-3-yl]methanol], the IC50 was 4 nM.

Consider `C[C@H](Nc1nc(Nc2cn(CC#N)cn2)nc(N2CCOCC2)n1)c1ncc(F)cn1` [Example 15, {4-[(4-{[(1S)-1-(5-Fluoropyrimidin-2-yl)ethyl]amino}-6-morpholin-4-yl-1,3,5-triazin-2-yl)amino]-1H-imidazol-1-yl}acetonitrile], for which the IC50 was found to be 873 nM.

`COC[C@H](Nc1nc(Nc2cn(C)cn2)nc(N2CCOC(C)C2)n1)c1ncc(F)cc1F` (stereo partly drawn) [Example 2, N-[(1R)-1-(3,5-Difluoropyridin-2-yl)-2-methoxyethyl]-N′-(1-methyl-1H-imidazol-4-yl)-6-(2-methylmorpholin-4-yl)-1,3,5-triazine-2,4-diamine]: the IC50 was 11 nM.

Regarding `COC[C@H](Nc1nc(Nc2cn(C)cn2)nc(N2CCOCC2)n1)c1ncc(F)cc1F` [Example 4, N-[(1R)-1-(3,5-Difluoropyridin-2-yl)-2-methoxyethyl]-N′-(1-methyl-1H-imidazol-4-yl)-6-morpholin-4-yl-1,3,5-triazine-2,4-diamine], the IC50 worked out at 4 nM.

Consider `COC[C@H](Nc1nc(Nc2cn(C)cn2)nc(N2C[C@@H](C)O[C@@H](C)C2)n1)c1ncc(F)cc1F` [Example 1, N-[(1R)-1-(3,5-Difluoropyridin-2-yl)-2-methoxyethyl]-6-[(2R,6S)-2,6-dimethylmorpholin-4-yl]-N′-(1-methyl-1H-imidazol-4-yl)-1,3,5-triazine-2,4-diamine], for which the IC50 is 18 nM.

For `CC(C)n1cnc(Nc2nc(N[C@@H](C)c3ncc(F)cn3)nc(N3CCOCC3)n2)c1` [Example 17, N-[(1S)-1-(5-Fluoropyrimidin-2-yl)ethyl]-N′-(1-isopropyl-1H-imidazol-4-yl)-6-morpholin-4-yl-1,3,5-triazine-2,4-diamine], the half-maximal inhibitory concentration (IC50) is 2880 nM.

Consider `CCn1cnc(Nc2nc(N[C@@H](C)c3ncc(F)cc3F)nc(N3CCOCC3)n2)c1` [Example 31, N-[(1S)-1-(3,5-difluoropyridin-2-yl)ethyl]-N′-(1-ethyl-1H-imidazol-4-yl)-6-morpholin-4-yl-1,3,5-triazine-2,4-diamine], for which the IC50 was 234 nM.

On to `COC1CN(c2nc(Nc3cn(C)cn3)nc(N[C@@H](C)c3ncc(F)cc3F)n2)C1` [Example 19, N-[(1S)-1-(3,5-Difluoropyridin-2-yl)ethyl]-6-(3-methoxyazetidin-1-yl)-N′-(1-methyl-1H-imidazol-4-yl)-1,3,5-triazine-2,4-diamine], for which the IC50 came to 3 nM.

Take `C[C@@H](Nc1nc(Nc2cn(C)cn2)nc(N2CCOCC2)n1)c1ncc(F)cc1F` (single isomer, unassigned) [Example 10(a)]: the half-inhibitory concentration (IC50) was found to be 190 nM.

Consider `C[C@H](Nc1nc(Nc2cn(C)cn2)nc(N2CCOCC2)n1)c1ncc(F)cn1` [Example 5, N-[(1S)-1-(5-Fluoropyrimidin-2-yl)ethyl]-N′-(1-methyl-1H-imidazol-4-yl)-6-morpholin-4-yl-1,3,5-triazine-2,4-diamine], for which the IC50 was determined as 9 nM.

`C[C@H](Nc1nc(Nc2c[nH]cn2)nc(N2CCOCC2)n1)c1ncc(F)cn1` [Example 23, N-[(1S)-1-(5-Fluoropyrimidin-2-yl)ethyl]-N′-1H-imidazol-4-yl-6-morpholin-4-yl-1,3,5-triazine-2,4-diamine]: the concentration for half-maximal inhibition (IC50) worked out at 86 nM.

Regarding `C[C@H](Nc1nc(Nc2cn(C)cn2)nc(N2CCOCC2)n1)c1ccc(C#N)cc1` [Example 28, 4-[(1S)-1-({4-[(1-methyl-1H-imidazol-4-yl)amino]-6-morpholin-4-yl-1,3,5-triazin-2-yl}amino)ethyl]benzonitrile], the half-maximal inhibitory concentration (IC50) was 798 nM.

As to `C[C@H](Nc1nc(Nc2cn(C)cn2)nc(N2CCC(F)(F)CC2)n1)c1ncc(F)cc1F` [Example 9, 6-(4,4-Difluoropiperidin-1-yl)-N-[(1S)-1-(3,5-difluoropyridin-2-yl)ethyl]-N-(1-methyl-1H-imidazol-4-yl)-1,3,5-triazine-2,4-diamine], the IC50 was determined as 4 nM.

For `C[C@H](Nc1nc(Nc2cn(CCc3ccsc3)cn2)nc(N2CCOCC2)n1)c1ncc(F)cn1` [Example 33, N-[(1S)-1-(5-Fluoropyrimidin-2-yl)ethyl]-6-morpholin-4-yl-N′-{1-[2-(3 thienyl)ethyl]-1H-imidazol-4-yl}-1,3,5-triazine-2,4-diamine], the 50% inhibitory concentration (IC50) amounted to 998 nM.

For `COC[C@H](Nc1nc(Nc2cn(C)cn2)nc(N2CCOC(C)(C)C2)n1)c1ncc(F)cc1F` [Example 3, N-[(1R)-1-(3,5-Difluoropyridin-2-yl)-2-methoxyethyl]-6-(2,2-dimethylmorpholin-4-yl)-N-(1-methyl-1H-imidazol-4-yl)-1,3,5-triazine-2,4-diamine], the IC50 was found to be 9 nM.

One may read the IC50 as the concentration at which inhibition is half-maximal.
